Reference: patent US8389526B2, “3-heteroarylmethyl-imidazo[1,2-b]pyridazin-6-yl derivatives” (Novartis AG, priority 2009, dated 2013)

Assays:
[1] = target: T1, c-Met receptor tyrosine kinase, GST-c-Met(969-1390) (Homo sapiens, UniProt P08581); test: EPK c-Met profiling assay (LanthaScreen TR-FRET kinase assay); format: biochemical; details: 2 μM ATP, 0.3 nM enzyme, 60 minutes at room temperature
T1 construct: made in house
Protocol: A number of compounds of the present invention were assayed in an antibody based kinase phosphorylation assay as follows.
Epk c-Met Profiling Assay:
The EPK kinase assay for c-Met receptor tyrosine kinase was developed, using the purified recombinant GST-fusion protein, containing the cytoplasmic domain of the enzyme. GST-c-Met(969-1390) was purified by affinity chromatography.
The kinase assay is based on the LanthaScreen™ technology. LanthaScreen™ is the detection of Time-Resolved Fluorescence Resonance Energy Transfer (TR-FRET) using lanthanide chelates to measure interactions between various binding partners. In a TR-FRET kinase assay, a long-lifetime lanthanide donor species is conjugated to an antibody that specifically binds to a phosphorylated product of a kinase reaction that is labeled with a suitable acceptor fluorophore. This antibody-mediated interaction brings the lanthanide donor and the acceptor into proximity such that resonance energy transfer can take place, resulting in a detectible increase in the FRET signal.
The kinase reactions were performed in 384 well microtiter plates in a total reaction volume of 9.05 μL. The assay plates were prepared with 0.05 μL per well of test compound in the appropriate test concentration, as described under “preparation of compound dilutions”. The reactions were started by combining 4.5 μL of ATP solution with 4.5 μL of enzyme-substrate mix (consisting of kinase and substrate). The final concentrations in the kinase reactions were 35 mM Tris/HCl, 1 mM DTT, 0.025% Tween20, 10 μM sodium orthovanadate, 0.25% BSA, 0.6% DMSO, 10 mM MgCl2, 3 mM MnCl2, 2 μM ATP, 50 nM Fluorescein-PolyEAY, and 0.3 nM enzyme.
The reactions were incubated for 60 minutes at room temperature and stopped by adding 4.5 μL of stop buffer (50 mM EDTA, 0.04% NP40, 20 mM Tris/HCl).
Subsequently 4.5 μL of detection mix (50 mM Tris/HCl, 2 mM DTT, 0.05% Tween20, 20 μM sodium orthovanadate, 1% BSA, 1.72 μg/mL Tb-PY20 antibody) were added to the stopped reactions. After 30 minutes incubation at room temperature, the plates were measured in a BMG Pherastar fluorescence reader. The effect of compound on the enzymatic activity was in all assays obtained from the linear progress curves and determined from one reading (end point measurement).
Preparation of Compound Dilutions
Test compounds were dissolved in DMSO (10 mM) and transferred into 1.4 mL flat bottom or V-shaped Matrix tubes carrying a unique 2D matrix. The stock solutions were stored at −20° C. if not used immediately. For the test procedure the vials were defrosted and identified by a scanner whereby a working sheet was generated that guided the subsequent working steps.
Compound dilutions were made in 96 well plates. This format enabled the assay of maximally 40 individual test compounds at 8 concentrations (single points) including 4 reference compounds. The dilution protocol included the production of “pre-dilution plates”, “master plates” and “assay plates”.
Pre-dilution plates: 96 polypropylene well plates were used as pre-dilution plates. A total of 4 pre-dilution plates were prepared including 10 test compounds each on the plate positions A1-A10, one standard compound at A11 and one DMSO control at A12. All dilution steps were done on a HamiltonSTAR robot.
Master plates: 100 μL of individual compound dilutions including standard compound and controls of the 4 “pre-dilution plates” were transferred into a 384 “master plate” including the following concentrations 1′820, 564, 182, 54.6, 18.2, 5.46, 1.82 and 0.546 μM, respectively in 90% of DMSO.
Assay plates: Identical “assay plates” were then prepared by pipetting 50 nL each of compound dilutions of the “master plates” into 384-well “assay plates” by means of a HummingBird 384-channel dispenser. These plates were used directly for the assay which was performed in a total volume of 9.05 μL. […]

[2] = tested on: MET-amplified gastric cancer cell line GTL-16; test: GTL-16 proliferation assay (MTS); format: cell-based; details: Homo sapiens, GTL-16 cells, 72 h incubation
Protocol: (§1) C-Met Dependent Cellular Assays
(§2) A number of compounds of the present invention were assayed in a c-Met dependent proliferation and phosphorylation assay as follows.
GTL-16 proliferation assay: the MET-amplified gastric cancer cell line GTL-16 was grown under standard cell culture conditions in DMEM [Dulbecco's Modified Eagle Medium] (high glucose) supplemented with 10% heat-inactivated fetal calf serum and 2 mM L-glutamine. For proliferation assays, cells were seeded at 3000 per well in 96-well-plates. 24 h later, a 10-point dilution series of each compound (3-fold steps, ranging from […]) was prepared in DMSO. Compound were then diluted 1000-fold in growth media in two steps and added to cells in triplicates, resulting in a final volume of […] per well and maximal final compound concentrations of […]. A DMSO-only control was included. Cells were incubated for 72 h and the amount of viable cells was then measured by adding […] of MTS reagent (CellTiter 96® AQueous Non-Radioactive Cell Proliferation Assay, Promega), further incubation for 30′, and reading the optical density at 490 nm.

c-Met = target: T2, c-Met (Homo sapiens, UniProt P08581); test: GTL-16 c-Met autophosphorylation measured by AlphaScreen detection; format: cell-based; details: GTL-16 cells, 1 h incubation, AlphaScreen p-c-Met; read-out: GTL-16 IC50 c-Met phosphorylation
T2 construct: adapted to measure the phosphorylation of endogenous cellular proteins in cell lysates; endogenous in cells; host or cells: GTL-16
Protocol: as §1, §2
GTL-16 c-Met autophosphorylation measured by AlphaScreen® detection: the human MET-amplified gastric cancer cells GTL-16 were plated in 384-well plates at a density of 10′000 cells in 20 ul complete growth medium (DMEM high glucose supplemented with 10% (v/v) heat inactivated fetal calf serum and of 1 mM sodium pyruvate) and were incubated at […]/5% CO2/95% humidity for 20 h. The cells were washed and the 30 ul assay buffer (DMEM high glucose, 1 mM sodium pyruvate, 0.1% bovine serum albumine) was added. Compounds were diluted in 384-well compound plates to obtain 8-point serial dilutions for 40 test compounds in 90% DMSO, as well as a reference compound plus 16 high- and 16 low (inhibited) controls. These compound plates were prediluted 1:200 in assay buffer into a compound predilution plate and 10 ul of prediluted compound solution were transferred to the cell plate using a 384-well pipettor, resulting in a final DMSO concentration of 0.11%. Cells were incubated for 1 h at […]/5% CO2/95% humidity. The supernatant was removed, the cells were lysed in 25 ul of RIPA [radio immuno precipitation assay] lysis buffer supplemented with 2 mM sodium vanadate and a protease inhibitor cocktail, and cell plates were stored at −80° C.
For detection of p-c-Met, an AlphaScreen®-based assay was used. AlphaScreen® (Amplified Luminescent Proximity Homogeneous Assay, ALPHA, Perkin Elmer, U.S.A) is a non-radioactive bead-based proximity assay technology to study biomolecular interactions in a homogenous microtiter plate format. This technique has been adapted to measure the phosphorylation of endogenous cellular proteins in cell lysates by the use of specific antibody pairs against the total protein and a phospho-specific epitope. 5 ul of cell lysate was transferred to 384-well low volume Proxiplates for detection using a 384-well pipettor. First, 5 ul of a premix of an anti-c-Met antibody (0.25 ug/ml f.c.), a biotinylated PY20 antibody (phosphotyrosine antibody, 0.05 ug/ml f.c.) and AlphaScreen® Protein A-coupled acceptor beads (10 ug/ml f.c.) in RIPA buffer supplemented with 0.25% (v/w) TOP BLOCK, 2 mM sodium vanadate, and a protease inhibitor cocktail and was added, the plate was sealed, and incubated on a plate shaker for 2 hours at room temperature. Second, 2 ul of dilution buffer containing AlphaScreen® Streptavidin-coated donor beads (10 ug/ml f.c.) in RIPA buffer was added, and the plate was incubated on plate shaker as above for a further 2 hours. The plate was read on an AlphaScreen® compatible plate reader, using standard AlphaScreen® settings.

T2 sequence (P08581 25-1390): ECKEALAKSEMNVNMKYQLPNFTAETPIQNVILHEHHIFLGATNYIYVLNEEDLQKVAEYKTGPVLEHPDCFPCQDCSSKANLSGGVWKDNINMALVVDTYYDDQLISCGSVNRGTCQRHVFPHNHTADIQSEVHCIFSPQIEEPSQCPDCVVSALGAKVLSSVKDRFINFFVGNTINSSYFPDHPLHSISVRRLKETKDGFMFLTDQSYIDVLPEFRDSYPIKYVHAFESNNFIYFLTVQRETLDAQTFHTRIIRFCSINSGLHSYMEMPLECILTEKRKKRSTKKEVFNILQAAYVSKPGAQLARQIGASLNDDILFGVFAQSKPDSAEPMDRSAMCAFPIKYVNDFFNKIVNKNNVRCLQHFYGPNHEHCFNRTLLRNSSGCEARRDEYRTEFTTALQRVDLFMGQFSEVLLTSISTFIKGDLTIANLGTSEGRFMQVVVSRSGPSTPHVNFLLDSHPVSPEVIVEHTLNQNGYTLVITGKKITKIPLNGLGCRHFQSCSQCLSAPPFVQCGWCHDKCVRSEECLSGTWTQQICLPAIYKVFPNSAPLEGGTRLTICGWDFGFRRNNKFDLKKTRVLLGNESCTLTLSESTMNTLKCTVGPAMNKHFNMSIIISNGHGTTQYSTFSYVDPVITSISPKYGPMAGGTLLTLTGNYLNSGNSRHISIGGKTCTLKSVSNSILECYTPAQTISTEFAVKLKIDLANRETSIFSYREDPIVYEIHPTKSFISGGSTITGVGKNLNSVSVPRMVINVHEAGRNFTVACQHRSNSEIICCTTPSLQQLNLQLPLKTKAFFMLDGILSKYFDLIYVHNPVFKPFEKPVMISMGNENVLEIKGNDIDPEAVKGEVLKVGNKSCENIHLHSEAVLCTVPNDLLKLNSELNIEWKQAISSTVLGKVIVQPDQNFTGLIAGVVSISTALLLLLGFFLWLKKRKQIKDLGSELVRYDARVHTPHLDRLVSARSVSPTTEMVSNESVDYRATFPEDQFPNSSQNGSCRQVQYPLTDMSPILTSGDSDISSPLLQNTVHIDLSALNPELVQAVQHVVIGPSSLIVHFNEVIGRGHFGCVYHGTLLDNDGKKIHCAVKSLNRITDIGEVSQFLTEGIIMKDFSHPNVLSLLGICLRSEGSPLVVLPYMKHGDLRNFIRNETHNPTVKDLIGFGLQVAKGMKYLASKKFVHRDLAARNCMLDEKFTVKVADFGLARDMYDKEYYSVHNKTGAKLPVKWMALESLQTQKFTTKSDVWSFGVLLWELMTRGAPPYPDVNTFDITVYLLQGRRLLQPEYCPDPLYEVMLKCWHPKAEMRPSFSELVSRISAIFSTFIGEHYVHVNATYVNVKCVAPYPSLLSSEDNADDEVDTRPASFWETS
T1 sequence (P08581 969-1390): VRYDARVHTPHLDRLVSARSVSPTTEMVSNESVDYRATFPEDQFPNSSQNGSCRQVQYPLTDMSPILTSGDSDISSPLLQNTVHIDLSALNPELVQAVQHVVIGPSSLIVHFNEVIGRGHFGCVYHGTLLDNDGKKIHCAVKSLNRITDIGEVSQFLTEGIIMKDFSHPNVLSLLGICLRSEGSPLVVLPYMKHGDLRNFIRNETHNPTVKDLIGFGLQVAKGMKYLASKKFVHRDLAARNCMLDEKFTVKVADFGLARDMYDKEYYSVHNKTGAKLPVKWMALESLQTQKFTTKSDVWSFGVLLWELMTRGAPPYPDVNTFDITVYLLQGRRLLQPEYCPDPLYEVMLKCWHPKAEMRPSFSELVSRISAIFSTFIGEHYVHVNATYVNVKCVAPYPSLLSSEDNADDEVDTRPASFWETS

With `CC(c1c(F)cc2ncccc2c1F)c1cnc2ccc(N3CCN(C)C(=O)C3)nn12` (racemic) [Example 1, (rac)-4-{3-[1-(5,7-Difluoro-quinolin-6-yl)-ethyl]-imidazo[1,2-b]pyridazin-6-yl}-1-methyl-piperazin-2-one] the IC50 [1] was 8.6 nM, the IC50 [2] was 9.1 nM and the IC50 (c-Met) was under 3 nM.

`CC(c1c(F)cc2ncccc2c1F)c1cnc2ccc(N3CCNC(=O)C3)nn12` (racemic) [Example 3, (rac)-4-{3-[1-(5,7-Difluoro-quinolin-6-yl)-ethyl]-imidazo[1,2-b]pyridazin-6-yl}-piperazin-2-one] showed an IC50 [1] of 5.2 nM, an IC50 [2] of 6 nM and an IC50 (c-Met) of under 3 nM.

Work on `CC(c1c(F)cc2ncccc2c1F)c1cnc2ccc(N3CCNCC3)nn12` (racemic) [Example 6, (rac)-5,7-Difluoro-6-[1-(6-piperazin-1-yl-imidazo[1,2-b]pyridazin-3-yl)-ethyl]-quinoline] yielded an IC50 [1] of 4.5 nM, an IC50 [2] of 11.6 nM and an IC50 (c-Met) of 3 nM.

Molecule `CC(c1c(F)cc2ncccc2c1F)c1cnc2ccc(N3CCN(C)CC3)nn12` (racemic) [Example 8, (rac)-5,7-Difluoro-6-{1-[6-(4-methyl-piperazin-1-yl)-imidazo[1,2-b]pyridazin-3-yl]-ethyl}-quinoline] has an IC50 [1] of 5.7 nM, an IC50 [2] of 15.5 nM and an IC50 (c-Met) of under 3 nM.

Work on `CC(=O)N1CCN(c2ccc3ncc(C(C)c4c(F)cc5ncccc5c4F)n3n2)CC1` (racemic) [Example 10, (rac)-1-(4-{3-[1-(5,7-Difluoro-quinolin-6-yl)-ethyl]-imidazo[1,2-b]pyridazin-6-yl}-piperazin-1-yl)ethanone] yielded an IC50 [1] of under 3 nM, an IC50 [2] of 14.6 nM and an IC50 (c-Met) of under 3 nM.

For `CC(c1c(F)cc2ncccc2c1F)c1cnc2ccc(N3CCN(C=O)CC3)nn12` (racemic) [Example 12, (rac)-4-{3-[1-(5,7-Difluoro-quinolin-6-yl)-ethyl]-imidazo[1,2-b]pyridazin-6-yl}-piperazine-1-carbaldehyde], the IC50 [1] was 8 nM.

`COC(=O)N1CCN(c2ccc3ncc(C(C)c4c(F)cc5ncccc5c4F)n3n2)CC1` (racemic) [Example 14, (rac)-4-{3-[1-(5,7-Difluoro-quinolin-6-yl)-ethyl]-imidazo[1,2-b]pyridazin-6-yl}-piperazine-1-carboxylic acid methyl ester] was tested, and the IC50 [1] was 7.9 nM.

For `CC(c1c(F)cc2ncccc2c1F)c1cnc2ccc(N3CCN(C(N)=O)CC3)nn12` (racemic) [Example 15, (rac)-4-{3-[1-(5,7-Difluoro-quinolin-6-yl)-ethyl]-imidazo[1,2-b]pyridazin-6-yl}-piperazine-1-carboxylic acid amide], the IC50 [1] was 5.4 nM, the IC50 [2] was 18 nM and the IC50 (c-Met) was 8.3 nM.

Molecule `CC(c1c(F)cc2ncccc2c1F)c1cnc2ccc(N3CCNC(=O)C3C)nn12` (racemic) [Example 18, (rac)-4-{3-[1-(5,7-Difluoro-quinolin-6-yl)-ethyl]-imidazo[1,2-b]pyridazin-6-yl}-3-methyl-piperazin-2-one] has an IC50 [1] of 8.3 nM and an IC50 [2] of 9.2 nM.

With `C[C@H](c1c(F)cc2ncccc2c1F)c1cnc2ccc(N3CCNC(=O)C3)nn12` (single isomer, unassigned) [Example 4] the IC50 [1] was 680 nM.

With `CN1CCN(c2ccc3ncc(Cc4cc5cccnc5cc4F)n3n2)CC1=O` [Example 37, 4-[3-(7-Fluoro-quinolin-6-ylmethyl)-imidazo[1,2-b]pyridazin-6-yl]-1-methyl-piperazin-2-one] the IC50 [1] was 58 nM.

`O=C1CN(c2ccc3ncc(Cc4cc5cccnc5cc4F)n3n2)CCN1` [Example 38, 4-[3-(7-Fluoro-quinolin-6-ylmethyl)-imidazo[1,2-b]pyridazin-6-yl]-piperazin-2-one] showed an IC50 [1] of 31 nM.

Molecule `CC(=O)N1CCN(c2ccc3ncc(Cc4cc5cccnc5cc4F)n3n2)CC1` [Example 39, 1-{4-[3-(7-Fluoro-quinolin-6-ylmethyl)-imidazo[1,2-b]pyridazin-6-yl]-piperazin-1-yl}-ethanone] has an IC50 [1] of 84 nM.

`CN1CCN(c2ccc3ncc(Cc4ccc5ncccc5c4F)n3n2)CC1=O` [Example 43, 4-[3-(5-Fluoro-quinolin-6-ylmethyl)-imidazo[1,2-b]pyridazin-6-yl]-1-methyl-piperazin-2-one] gave an IC50 [1] of 84 nM.

With `CC(=O)N1CCN(c2ccc3ncc(Cc4ccc5ncccc5c4F)n3n2)CC1` [Example 45, 1-{4-[3-(5-Fluoro-quinolin-6-ylmethyl)-imidazo[1,2-b]pyridazin-6-yl]-piperazin-1-yl}-ethanone] the IC50 [1] was 170 nM.

`CC(=O)N1CCN(c2ccc3ncc(Cc4c(F)cc5c(cnn5C)c4F)n3n2)CC1` [Example 55, 1-(4-(3-((4,6-difluoro-1-methyl-1H-indazol-5-yl)methyl)imidazo[1,2-b]pyridazin-6-yl)piperazin-1-yl)ethanone] showed an IC50 [1] of 29 nM.
